Assay results as given in patent US10829796B2, “Bacteria identification and antimicrobial susceptibility test” (priority 2015, dated 2020).

System: bacteria in clinical bovine mastitis milk samples
Assay: Combined bacteria identification and antimicrobial susceptibility test (colour of wells, MIC) on clinical bovine mastitis milk samples
Type: cell-based
Procedure: Clinical bovine mastitis milk samples were collected by a vet clinic in South Island, New Zealand. Samples were stored in the freezer for several months and shipped frozen to the testing facility. In this Example, the term “clinical” means that dairy cows had clinical symptoms of an udder infection e.g. cow behaved unusual, milk clots, swollen udder among other typical symptoms. Testing was executed in microwell plate comprising of 24 wells (3×8 wells).
In addition, 20 ul of clinical mastitis sample was added to each well with a laboratory pipette.
Abbreviations • 1. 80 ul GC+10 ul Tell: 80 ul Giolitti Cantoni base broth+10 ul Tellurite solution (1%); • 2. 80 ul TSB/Esc/Fer Cit: 80 ul Tryptic soy broth containing 0.25% Esculin and 0.125% Ammonium Ferric Citrate; • 3. 80 ul TSB/Esc/Fer Cit+10 ul Genta: 80 ul Tryptic soy broth containing 0.25% Esculin and 0.125% Ammonium Ferric Citrate+10 ul of Gentamycin solution 10 mg/ml; • 4. 80 ul McC/PR25: 80 ul MacConkey broth (single strength) containing 0.0125% phenol red; and • 5. 80 ul TSB/PR25: 80 ul Tryptic soy broth containing 0.0125% phenol red. Bacteria Identification
Columns A to C and rows 1 and 2 were used for bacteria identification. A1: coagulase positive Staph; A2: Staphylococci; B1: Strep group D; B2: Strep group D; C1: general enrichment media (gram+ and gram-bacteria); C2: coliform bacteria.
Column A3 to A8: serial dilution of benzyl penicillin as potassium. Column B3 to B8: serial dilution of ceftiofur as hydrochloride. Column C3 to C8: serial dilution of cloxacillin as sodium. Antibiotic concentrations are listed as free form ranging between 4 ug/ml to 0.05 ug/ml.
Minimum inhibitory substance concentration (MIC) is here defined as the concentration if a colour change occurs between two wells (one well remains red with drug concentration 1, the other one yellow with drug concentration 2, whereas drug concentration 1 is larger than drug concentration 2) then the MIC is the value of drug concentration 1.
Table 21 indicates the microwell plate configuration #1; Drugs: Benzylpenicillin as potassium; Cloxacillin as sodium; Ceftiofur as hydrochloride; Drug concentration in each well (A3 to C8) is based on 80 μl composition+10 μl drug solution+20 μl clinical mastitis milk sample and equivalent to listed drug concentration in μg/ml; 20 ul of clinical bovine mastitis milk sample was added to each well (A1 to C8).
In addition, each well received one drop of clinical sample from a transfer pipette which was on average about 35 mg. This was determined through weighing the well plate prior and after the addition of clinical mastitis samples. This weight was then divided by 24.
• 1. 80 ul GC+10 ul Tell: 80 ul Giolitti Cantoni base broth+10 ul Tellurite solution (1%); • 2. 80 ul TSB/Esc/Fer Cit: 80 ul Tryptic soy broth containing 0.25% Esculin and 0.125% Ammonium Ferric Citrate; • 3. 80 ul TSB/Esc/Fer Cit+10 ul Genta: 80 ul Tryptic soy broth containing 0.25% Esculin and 0.125% Ammonium Ferric Citrate+10 ul of Gentamycin solution 10 mg/ml; • 4. 80 ul McC/PR25: 80 ul MacConkey broth (single strength) containing 0.0125% phenol red; and • 5. 80 ul TSB/PR25: 80 ul Tryptic soy broth containing 0.0125% phenol red.
Columns A to C and rows 1 and 2 were used for bacteria identification. A1: coagulase positive Staph; A2: Staphylococci; B1: Strep Group D; B2: -; C1: general enrichment media (gram+ and gram-); C2: coliform bacteria.
Column A3 to A8: serial dilution of benzyl penicillin as potassium. Drug concentrations given as free form ranging between 4 ug/ml to 0.05 ug/ml. Column B3 to B8: serial dilution of ceftiofur as hydrochloride. Drug concentrations given as free form ranging between 4 ug/ml to 0.05 ug/ml. Column C3 to C8: serial dilution of cloxacillin as sodium. Drug concentrations given as free form ranging between 4 ug/ml to 0.05 ug/ml.

Question: CO/N=C(\C(=O)N[C@@H]1C(=O)N2C(C(=O)O)=C(CSC(=O)c3ccco3)CS[C@H]12)c1csc(N)n1 [ceftiofur] was tested. Which “Colour of media in each well” value (ID 5 to 8, T = 0 h (prior incubation, reference), plate configuration #2, drug 2 μg/ml) did it give?
Answer: red

Question: What about the “Colour of media in each well” value (ID 5 to 8, T = 0 h (prior incubation, reference), plate configuration #2, drug 4 μg/ml) of the same molecule?
Answer: red

Question: What about the “Colour of media in each well” value (ID 6, T = 23h, 37° C., plate configuration #2, drug 0.05 μg/ml (Table 31)) of the same molecule?
Answer: yellow

Question: What about the “Colour of media in each well” value (ID 6, T = 23h, 37° C., plate configuration #2, drug 0.1 μg/ml (Table 31)) of the same molecule?
Answer: yellow

Question: And the “Colour of media in each well” value (ID 6, T = 23h, 37° C., plate configuration #2, drug 0.5 μg/ml (Table 31))?
Answer: yellow

Question: What about the “Colour of media in each well” value (ID 6, T = 23h, 37° C., plate configuration #2, drug 1 μg/ml (Table 31)) of the same molecule?
Answer: yellow

Question: And the “Colour of media in each well” value (ID 6, T = 23h, 37° C., plate configuration #2, drug 2 μg/ml (Table 31))?
Answer: red

Question: And the “Colour of media in each well” value (ID 6, T = 23h, 37° C., plate configuration #2, drug 4 μg/ml (Table 31))?
Answer: red

Question: What about the “Colour of media in each well” value (ID 6, T~7 h, 37° C., plate configuration #2, Table 35, drug 0.05 μg/ml) of the same molecule?
Answer: yellow

Question: And the “Colour of media in each well” value (ID 6, T~7 h, 37° C., plate configuration #2, Table 35, drug 0.1 μg/ml)?
Answer: yellow

Question: What about the “Colour of media in each well” value (ID 6, T~7 h, 37° C., plate configuration #2, Table 35, drug 0.5 μg/ml) of the same molecule?
Answer: yellow

Question: And the “Colour of media in each well” value (ID 6, T~7 h, 37° C., plate configuration #2, Table 35, drug 1 μg/ml)?
Answer: red

Question: What about the “Colour of media in each well” value (ID 6, T~7 h, 37° C., plate configuration #2, Table 35, drug 2 μg/ml) of the same molecule?
Answer: red

Question: And the “Colour of media in each well” value (ID 6, T~7 h, 37° C., plate configuration #2, Table 35, drug 4 μg/ml)?
Answer: red

Question: What about the “Colour of media in each well” value (ID 6, T~11 h, 37° C., plate configuration #2, Table 35, drug 0.05 μg/ml) of the same molecule?
Answer: yellow

Question: What about the “Colour of media in each well” value (ID 6, T~11 h, 37° C., plate configuration #2, Table 35, drug 0.1 μg/ml) of the same molecule?
Answer: yellow

Question: What about the “Colour of media in each well” value (ID 6, T~11 h, 37° C., plate configuration #2, Table 35, drug 0.5 μg/ml) of the same molecule?
Answer: yellow

Question: And the “Colour of media in each well” value (ID 6, T~11 h, 37° C., plate configuration #2, Table 35, drug 1 μg/ml)?
Answer: red

Question: And the “Colour of media in each well” value (ID 6, T~11 h, 37° C., plate configuration #2, Table 35, drug 2 μg/ml)?
Answer: red

Question: And the “Colour of media in each well” value (ID 6, T~11 h, 37° C., plate configuration #2, Table 35, drug 4 μg/ml)?
Answer: red

Question: And the “Colour of media in each well” value (ID 6, T~23 h, 37° C., plate configuration #2, Table 35, drug 0.05 μg/ml)?
Answer: yellow

Question: What about the “Colour of media in each well” value (ID 6, T~23 h, 37° C., plate configuration #2, Table 35, drug 0.1 μg/ml) of the same molecule?
Answer: yellow

Question: What about the “Colour of media in each well” value (ID 6, T~23 h, 37° C., plate configuration #2, Table 35, drug 0.5 μg/ml) of the same molecule?
Answer: yellow

Question: What about the “Colour of media in each well” value (ID 6, T~23 h, 37° C., plate configuration #2, Table 35, drug 1 μg/ml) of the same molecule?
Answer: yellow

Question: What about the “Colour of media in each well” value (ID 6, T~23 h, 37° C., plate configuration #2, Table 35, drug 2 μg/ml) of the same molecule?
Answer: red

Question: And the “Colour of media in each well” value (ID 6, T~23 h, 37° C., plate configuration #2, Table 35, drug 4 μg/ml)?
Answer: red

Question: What about the “Colour of media in each well” value (ID 7, T = 23h, 37° C., plate configuration #2, drug 0.05 μg/ml) of the same molecule?
Answer: yellow

Question: And the “Colour of media in each well” value (ID 7, T = 23h, 37° C., plate configuration #2, drug 0.1 μg/ml)?
Answer: yellow

Question: What about the “Colour of media in each well” value (ID 7, T = 23h, 37° C., plate configuration #2, drug 0.5 μg/ml) of the same molecule?
Answer: yellow

Question: And the “Colour of media in each well” value (ID 7, T = 23h, 37° C., plate configuration #2, drug 1 μg/ml)?
Answer: red

Question: And the “Colour of media in each well” value (ID 7, T = 23h, 37° C., plate configuration #2, drug 2 μg/ml)?
Answer: red

Question: What about the “Colour of media in each well” value (ID 7, T = 23h, 37° C., plate configuration #2, drug 4 μg/ml) of the same molecule?
Answer: red

Question: What about the “Colour of media in each well” value (ID 8, T = 23 h, 37° C., plate configuration #2, drug 0.05 μg/ml) of the same molecule?
Answer: yellow

Question: And the “Colour of media in each well” value (ID 8, T = 23 h, 37° C., plate configuration #2, drug 0.1 μg/ml)?
Answer: yellow

Question: What about the “Colour of media in each well” value (ID 8, T = 23 h, 37° C., plate configuration #2, drug 0.5 μg/ml) of the same molecule?
Answer: red

Question: What about the “Colour of media in each well” value (ID 8, T = 23 h, 37° C., plate configuration #2, drug 1 μg/ml) of the same molecule?
Answer: red

Question: What about the “Colour of media in each well” value (ID 8, T = 23 h, 37° C., plate configuration #2, drug 2 μg/ml) of the same molecule?
Answer: red

Question: And the “Colour of media in each well” value (ID 8, T = 23 h, 37° C., plate configuration #2, drug 4 μg/ml)?
Answer: red

Question: And the “Colour of media in each well” value (Table 24, sample ID 2, 22 hours at 37° C., plate configuration #1, row 3 of serial dilution 4 ug/ml to 0.05 ug/ml)?
Answer: red

Question: What about the “Colour of media in each well” value (Table 24, sample ID 2, 22 hours at 37° C., plate configuration #1, row 4 of serial dilution 4 ug/ml to 0.05 ug/ml) of the same molecule?
Answer: red

Question: What about the “Colour of media in each well” value (Table 24, sample ID 2, 22 hours at 37° C., plate configuration #1, row 5 of serial dilution 4 ug/ml to 0.05 ug/ml) of the same molecule?
Answer: red

Question: What about the “Colour of media in each well” value (Table 24, sample ID 2, 22 hours at 37° C., plate configuration #1, row 6 of serial dilution 4 ug/ml to 0.05 ug/ml) of the same molecule?
Answer: orange

Question: What about the “Colour of media in each well” value (Table 24, sample ID 2, 22 hours at 37° C., plate configuration #1, row 7 of serial dilution 4 ug/ml to 0.05 ug/ml) of the same molecule?
Answer: yellow

Question: And the “Colour of media in each well” value (Table 24, sample ID 2, 22 hours at 37° C., plate configuration #1, row 8 of serial dilution 4 ug/ml to 0.05 ug/ml)?
Answer: yellow

Question: And the MIC (clinical sample ID 1 (streptococci group D), 37° C. for 22 hours, plate configuration #1)?
Answer: 0.5 µg/mL

Question: And the MIC (clinical sample ID 2 (streptococci group D, also coagulase positive Staph), 37° C. for 22 hours, plate configuration #1)?
Answer: 1 µg/mL

Question: What about the MIC (clinical sample ID 3 (coliform bacteria), 37° C. for 22 hours, plate configuration #1) of the same molecule?
Answer: 1 µg/mL

Question: What about the MIC (clinical sample ID 4 (coagulase positive Staph), 37° C. for 22 hours, plate configuration #1) of the same molecule?
Answer: 1 µg/mL

Question: What about the MIC (clinical sample ID 5 (streptococci group D), 37° C. for 23 hours, plate configuration #2) of the same molecule?
Answer: 0.5 µg/mL

Question: What about the MIC (clinical sample ID 6 (coliform bacteria), 37° C. for 23 hours, plate configuration #2) of the same molecule?
Answer: 2 µg/mL

Question: What about the MIC (clinical sample ID 7 (coagulase positive Staph), 37° C. for 23 hours, plate configuration #2) of the same molecule?
Answer: 1 µg/mL

Question: What about the MIC (clinical sample ID 8 (coagulase negative Staph and Streptococci group D), 37° C. for 23 hours, plate configuration #2) of the same molecule?
Answer: 0.5 µg/mL
